# From ChEMBL document CHEMBL6078630, “Design, synthesis, and bioactivity investigation of novel cyclic lipopeptide antibiotics targeting top-priority multidrug-resistant gram-negative bacteria” (Eur J Med Chem, 2024)
# Bridge positions count the residues as written; N and C are the ends. Square brackets hold non-standard residues; d marks the D form. Peptide text beside a SMILES is read from it. * marks the point of attachment. Heptanoyl(6-Me) = CC(C)CCCCC(=O)*; dDab = NCC[C@@H](N)C(=O)O; dDap = NC[C@@H](N)C(=O)O; Dab = NCC[C@H](N)C(=O)O
# Experiments:
# Escherichia coli [1] = test: Antibacterial activity against Escherichia coli ATCC BAA-2523 assessed as inhibition of bacterial growth incubated for 16 to 20 hrs by CLSI protocol based broth microdilution method; format: functional; conditions: time 16-20 hrs
# Escherichia coli [2] = test: Antibacterial activity against carbapenem-resistant Escherichia coli ATCC BAA-2340 assessed as inhibition of bacterial growth incubated for 16 to 20 hrs by CLSI protocol based broth microdilution method; format: functional; conditions: time 16-20 hrs
# Klebsiella pneumoniae [3] = test: Antibacterial activity against carbapenem-resistant Klebsiella pneumoniae clinical isolate KPN+19-15 assessed as inhibition of bacterial growth incubated for 16 to 20 hrs by CLSI protocol based broth microdilution method; format: functional; conditions: time 16-20 hrs
# Klebsiella pneumoniae [4] = test: Antibacterial activity against carbapenem-resistant Klebsiella pneumoniae ATCC BAA-1705 assessed as inhibition of bacterial growth incubated for 16 to 20 hrs by CLSI protocol based broth microdilution method; format: functional; conditions: time 16-20 hrs
# Pseudomonas aeruginosa [5] = test: Antibacterial activity against carbapenem-resistant Pseudomonas aeruginosa clinical isolate 19-3 assessed as inhibition of bacterial growth incubated for 16 to 20 hrs by CLSI protocol based broth microdilution method; format: functional; conditions: time 16-20 hrs
# Pseudomonas aeruginosa [6] = test: Antibacterial activity against Pseudomonas aeruginosa ATCC 27853 assessed as inhibition of bacterial growth incubated for 16 to 20 hrs by CLSI protocol based broth microdilution method; format: functional; conditions: time 16-20 hrs
# Acinetobacter baumannii [7] = test: Antibacterial activity against carbapenem-sensitive Acinetobacter baumannii clinical isolate 19-1 assessed as inhibition of bacterial growth incubated for 16 to 20 hrs by CLSI protocol based broth microdilution method; format: functional; conditions: time 16-20 hrs
# Acinetobacter baumannii [8] = test: Antibacterial activity against Acinetobacter baumannii NCTC 13304 (OXA-27) assessed as inhibition of bacterial growth incubated for 16 to 20 hrs by CLSI protocol based broth microdilution method; format: functional; conditions: time 16-20 hrs
# [9] = Renal cytotoxicity against HK-2 cells incubated for 72 hrs by CCK8 assay; format: toxicity, cell-based; conditions: human
# Escherichia coli [10] = test: Antibacterial activity against carbapenem-resistant Escherichia coli clinical isolate 231016w014 assessed as inhibition of bacterial growth incubated for 24 hrs by CLSI protocol based broth microdilution method; format: functional
# Escherichia coli [11] = test: Antibacterial activity against carbapenem-resistant Escherichia coli clinical isolate 231112E006B assessed as inhibition of bacterial growth incubated for 24 hrs by CLSI protocol based broth microdilution method; format: functional
# Escherichia coli [12] = test: Antibacterial activity against carbapenem-resistant Escherichia coli clinical isolate 231109W005 assessed as inhibition of bacterial growth incubated for 24 hrs by CLSI protocol based broth microdilution method; format: functional
# Klebsiella pneumoniae [13] = test: Antibacterial activity against carbapenem-resistant Klebsiella pneumoniae clinical isolate ets26 assessed as inhibition of bacterial growth incubated for 24 hrs by CLSI protocol based broth microdilution method; format: functional
# Klebsiella pneumoniae [14] = test: Antibacterial activity against carbapenem-resistant Klebsiella pneumoniae clinical isolate ets40 assessed as inhibition of bacterial growth incubated for 24 hrs by CLSI protocol based broth microdilution method; format: functional
# Klebsiella pneumoniae [15] = test: Antibacterial activity against carbapenem-resistant Klebsiella pneumoniae clinical isolate ets45 assessed as inhibition of bacterial growth incubated for 24 hrs by CLSI protocol based broth microdilution method; format: functional
# Klebsiella pneumoniae [16] = test: Antibacterial activity against carbapenem-resistant Klebsiella pneumoniae clinical isolate ets74 assessed as inhibition of bacterial growth incubated for 24 hrs by CLSI protocol based broth microdilution method; format: functional
# Klebsiella pneumoniae [17] = test: Antibacterial activity against carbapenem-resistant Klebsiella pneumoniae clinical isolate ets75 assessed as inhibition of bacterial growth incubated for 24 hrs by CLSI protocol based broth microdilution method; format: functional
# Klebsiella pneumoniae [18] = test: Antibacterial activity against carbapenem-resistant Klebsiella pneumoniae clinical isolate ets77 assessed as inhibition of bacterial growth incubated for 24 hrs by CLSI protocol based broth microdilution method; format: functional
# Klebsiella pneumoniae [19] = test: Antibacterial activity against carbapenem-resistant Klebsiella pneumoniae clinical isolate ets78 assessed as inhibition of bacterial growth incubated for 24 hrs by CLSI protocol based broth microdilution method; format: functional
# Klebsiella pneumoniae [20] = test: Antibacterial activity against carbapenem-resistant Klebsiella pneumoniae clinical isolate ets80 assessed as inhibition of bacterial growth incubated for 24 hrs by CLSI protocol based broth microdilution method; format: functional
# Pseudomonas aeruginosa [21] = test: Antibacterial activity against carbapenem-resistant Pseudomonas aeruginosa clinical isolate ets5 assessed as inhibition of bacterial growth incubated for 24 hrs by CLSI protocol based broth microdilution method; format: functional
# Pseudomonas aeruginosa [22] = test: Antibacterial activity against carbapenem-resistant Pseudomonas aeruginosa clinical isolate ets6 assessed as inhibition of bacterial growth incubated for 24 hrs by CLSI protocol based broth microdilution method; format: functional
# Pseudomonas aeruginosa [23] = test: Antibacterial activity against carbapenem-resistant Pseudomonas aeruginosa clinical isolate ets15 assessed as inhibition of bacterial growth incubated for 24 hrs by CLSI protocol based broth microdilution method; format: functional
# Pseudomonas aeruginosa [24] = test: Antibacterial activity against carbapenem-resistant Pseudomonas aeruginosa clinical isolate ets22 assessed as inhibition of bacterial growth incubated for 24 hrs by CLSI protocol based broth microdilution method; format: functional
# Pseudomonas aeruginosa [25] = test: Antibacterial activity against carbapenem-resistant Pseudomonas aeruginosa clinical isolate ets33 assessed as inhibition of bacterial growth incubated for 24 hrs by CLSI protocol based broth microdilution method; format: functional
# Pseudomonas aeruginosa [26] = test: Antibacterial activity against carbapenem-resistant Pseudomonas aeruginosa clinical isolate ets38 assessed as inhibition of bacterial growth incubated for 24 hrs by CLSI protocol based broth microdilution method; format: functional
# Pseudomonas aeruginosa [27] = test: Antibacterial activity against carbapenem-resistant Pseudomonas aeruginosa clinical isolate ets49 assessed as inhibition of bacterial growth incubated for 24 hrs by CLSI protocol based broth microdilution method; format: functional
# Pseudomonas aeruginosa [28] = test: Antibacterial activity against carbapenem-resistant Pseudomonas aeruginosa clinical isolate ets55 assessed as inhibition of bacterial growth incubated for 24 hrs by CLSI protocol based broth microdilution method; format: functional
# Pseudomonas aeruginosa [29] = test: Antibacterial activity against carbapenem-resistant Pseudomonas aeruginosa clinical isolate ets83 assessed as inhibition of bacterial growth incubated for 24 hrs by CLSI protocol based broth microdilution method; format: functional
# Pseudomonas aeruginosa [30] = test: Antibacterial activity against carbapenem-resistant Pseudomonas aeruginosa clinical isolate ets84 assessed as inhibition of bacterial growth incubated for 24 hrs by CLSI protocol based broth microdilution method; format: functional
# Pseudomonas aeruginosa [31] = test: Antibacterial activity against carbapenem-resistant Pseudomonas aeruginosa clinical isolate ets85 assessed as inhibition of bacterial growth incubated for 24 hrs by CLSI protocol based broth microdilution method; format: functional
# Pseudomonas aeruginosa [32] = test: Antibacterial activity against carbapenem-resistant Pseudomonas aeruginosa clinical isolate ets104 assessed as inhibition of bacterial growth incubated for 24 hrs by CLSI protocol based broth microdilution method; format: functional
# Acinetobacter baumannii [33] = test: Antibacterial activity against carbapenem-resistant Acinetobacter baumannii clinical isolate ets30 assessed as inhibition of bacterial growth incubated for 24 hrs by CLSI protocol based broth microdilution method; format: functional
# Acinetobacter baumannii [34] = test: Antibacterial activity against carbapenem-resistant Acinetobacter baumannii clinical isolate ets104 assessed as inhibition of bacterial growth incubated for 24 hrs by CLSI protocol based broth microdilution method; format: functional
# Acinetobacter baumannii [35] = test: Antibacterial activity against carbapenem-resistant Acinetobacter baumannii clinical isolate ets123 assessed as inhibition of bacterial growth incubated for 24 hrs by CLSI protocol based broth microdilution method; format: functional
# Acinetobacter baumannii [36] = test: Antibacterial activity against carbapenem-resistant Acinetobacter baumannii clinical isolate ets171 assessed as inhibition of bacterial growth incubated for 24 hrs by CLSI protocol based broth microdilution method; format: functional
# Acinetobacter baumannii [37] = test: Antibacterial activity against carbapenem-resistant Acinetobacter baumannii clinical isolate ets178 assessed as inhibition of bacterial growth incubated for 24 hrs by CLSI protocol based broth microdilution method; format: functional
smiles,measurement,setting,value
CC(C)CCCCC(=O)N[C@@H](CCN)C(=O)N[C@H](C(=O)N[C@H](CN)C(=O)N[C@H]1CCNC(=O)[C@H]([C@@H](C)O)NC(=O)[C@H](CCN)NC(=O)[C@H](CCN)NC(=O)[C@H]([C@@H](C)O)NC(=O)[C@@H](Cc2ccccc2)NC(=O)[C@H](CCN)NC1=O)[C@@H](C)O ({Heptanoyl(6-Me)}-[Dab]T[dDap][Dab][Dab][dF]T[Dab][Dab]T; lactam 4-C),MIC,Escherichia coli [1],≤ 0.03 µg/mL
same,MIC,Escherichia coli [2],≤ 0.03 µg/mL
same,MIC,Klebsiella pneumoniae [3],≤ 0.03 µg/mL
same,MIC,Klebsiella pneumoniae [4],≤ 0.03 µg/mL
same,MIC,Pseudomonas aeruginosa [5],0.125 µg/mL
same,MIC,Pseudomonas aeruginosa [6],≤ 0.03 µg/mL
same,MIC,Acinetobacter baumannii [7],≤ 0.03 µg/mL
same,MIC,Acinetobacter baumannii [8],≤ 0.03 µg/mL
same,IC50 at 72 h,[9],> 500 µg/mL
same,MIC,Escherichia coli [10],< 0.06 µg/mL
same,MIC,Escherichia coli [11],< 0.06 µg/mL
same,MIC,Escherichia coli [12],< 0.06 µg/mL
same,MIC,Klebsiella pneumoniae [13],0.5 µg/mL
same,MIC,Klebsiella pneumoniae [14],0.125 µg/mL
same,MIC,Klebsiella pneumoniae [15],0.25 µg/mL
same,MIC,Klebsiella pneumoniae [16],0.5 µg/mL
same,MIC,Klebsiella pneumoniae [17],0.5 µg/mL
same,MIC,Klebsiella pneumoniae [18],0.5 µg/mL
same,MIC,Klebsiella pneumoniae [19],0.25 µg/mL
same,MIC,Klebsiella pneumoniae [20],0.5 µg/mL
same,MIC,Pseudomonas aeruginosa [21],1 µg/mL
same,MIC,Pseudomonas aeruginosa [22],0.5 µg/mL
same,MIC,Pseudomonas aeruginosa [23],1 µg/mL
same,MIC,Pseudomonas aeruginosa [24],2 µg/mL
same,MIC,Pseudomonas aeruginosa [25],4 µg/mL
same,MIC,Pseudomonas aeruginosa [26],0.5 µg/mL
same,MIC,Pseudomonas aeruginosa [27],< 0.06 µg/mL
same,MIC,Pseudomonas aeruginosa [28],1 µg/mL
same,MIC,Pseudomonas aeruginosa [29],0.5 µg/mL
same,MIC,Pseudomonas aeruginosa [30],2 µg/mL
same,MIC,Pseudomonas aeruginosa [31],0.5 µg/mL
same,MIC,Pseudomonas aeruginosa [32],1 µg/mL
same,MIC,Acinetobacter baumannii [33],2 µg/mL
same,MIC,Acinetobacter baumannii [34],0.06 µg/mL
same,MIC,Acinetobacter baumannii [35],2 µg/mL
same,MIC,Acinetobacter baumannii [36],0.5 µg/mL
same,MIC,Acinetobacter baumannii [37],1 µg/mL
CC(C)CCCCC(=O)N[C@@H](CCN)C(=O)N[C@H](C(=O)N[C@H](CCN)C(=O)N[C@H]1CCNC(=O)[C@H]([C@@H](C)O)NC(=O)[C@H](CCN)NC(=O)[C@H](CCN)NC(=O)[C@H]([C@@H](C)O)NC(=O)[C@@H](Cc2ccccc2)NC(=O)[C@H](CCN)NC1=O)[C@@H](C)O ({Heptanoyl(6-Me)}-[Dab]T[dDab][Dab][Dab][dF]T[Dab][Dab]T; lactam 4-C),MIC,Escherichia coli [1],≤ 0.03 µg/mL
same,MIC,Escherichia coli [2],≤ 0.03 µg/mL
same,MIC,Klebsiella pneumoniae [3],≤ 0.03 µg/mL
same,MIC,Klebsiella pneumoniae [4],0.125 µg/mL
same,MIC,Pseudomonas aeruginosa [5],0.5 µg/mL
same,MIC,Pseudomonas aeruginosa [6],0.5 µg/mL
same,MIC,Acinetobacter baumannii [7],0.06 µg/mL
same,MIC,Acinetobacter baumannii [8],≤ 0.03 µg/mL
same,IC50 at 72 h,[9],> 500 µg/mL
C[C@@H](O)[C@@H]1NC(=O)[C@H](CCN)NC(=O)[C@H](CCN)NC(=O)[C@H]([C@@H](C)O)NC(=O)[C@H](Cc2ccccc2)NC(=O)[C@H](CCN)NC(=O)[C@@H](NC(=O)[C@@H](CO)NC(=O)[C@@H](NC(=O)[C@H](CCN)NC(=O)CCCCCCC(=O)O)[C@@H](C)O)CCNC1=O,MIC,Escherichia coli [1],≤ 0.03 µg/mL
same,MIC,Escherichia coli [2],≤ 0.03 µg/mL
same,MIC,Klebsiella pneumoniae [3],≤ 0.03 µg/mL
same,MIC,Klebsiella pneumoniae [4],0.06 µg/mL
same,MIC,Pseudomonas aeruginosa [5],4 µg/mL
same,MIC,Pseudomonas aeruginosa [6],4 µg/mL
same,MIC,Acinetobacter baumannii [7],0.06 µg/mL
same,MIC,Acinetobacter baumannii [8],≤ 0.03 µg/mL
same,IC50 at 72 h,[9],> 500 µg/mL
